The values below come from patent publication US8093296B2 (Mutual Pharmaceutical Company, Inc., priority 2008, dated 2012).

Data set [1] can be described thus: Pharmacokinetic study in healthy adults of single vs. multiple oral doses of colchicine tablets (Example 1).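 As to all read-outs here: each subject received both dosing periods, single and repeated oral dosing, with a 14-day washout interval between periods.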 The data set is classed as in vivo, human. The conditions noted are these: for concentration at 25 day: 0.6 mg.
Method: Subjects received a light breakfast served 60 minutes following dose administration in the morning and the evening dose was administered 90 minutes after an evening meal on Days 15 through 24 only. […] Study periods were separated by a 14-day washout. Following the single dose and the last dose of the multiple dose regimen (beginning on the mornings of Day 1 and Day 25, respectively), blood samples were collected (6 mL each) from each subject within 1 hour prior to dosing and after dose administration at study hours 0.5, 1, 1.5, 2, 3, 4, 6, 8, 10, 12, and 24 (while confined) and 36, 48, 72, and 96 (on an outpatient basis).
In the next data set the test system is CYP2C9/19. The conditions noted are these: Dvorak 2000, preliminary; 1 and 10 μM colchicine; cited from earlier work.
The conditions of data set [2]: cited from earlier work.
The conditions of data set [3]: colchicine 0.6 mg twice a day, two randomized clinical trials, patients initiating urate lowering therapy; cited from earlier work.
Another data set can be described thus: clinical. The conditions noted are these: human, in vivo, 0.6 mg.
Data set [4] can be described thus: Colchicine elimination half-life after multiple oral doses in young healthy volunteers. It is filed as in vivo. The conditions noted are these: human, plasma; multiple oral doses 0.6 mg twice daily, young healthy volunteers (mean age 25 to 28 years).
The conditions of data set [5]: colchicine administration; cited from earlier work.
Setting [6] is: mean, multiple (b.i.d.) oral doses 0.6 mg x 10 days, Day 25, healthy adults N=13.
Where [7] appears, read: mean, single oral dose 0.6 mg, healthy adults N=13.
Setting [8] is: median, multiple (b.i.d.) oral doses 0.6 mg x 10 days, Day 25, healthy adults N=13.
The mark [9] stands for this setting: median, single oral dose 0.6 mg, healthy adults N=13.
Where [10] appears, read: co-administration of clarithromycin vs colchicine alone.
[11] abbreviates: colchicine 0.6 mg with steady-state clarithromycin vs colchicine alone.
Setting [12] is: mean, Day 1, single-dose colchicine 0.6 mg alone, healthy adults n=23.

Entries after “also recorded” stand apart in the source; their conditions may differ. Like-named read-outs stand apart in the source and are kept apart here. A value given as a limit tells only on which side of the number the result lay.

Method for clinical: A single-center, open-label, one sequence, two-period study was carried out in 23 healthy subjects. […] After completing a 21-day washout period, all subjects received 250 mg of clarithromycin administered twice daily for 7 days (Days 22 through 29), a sufficient dose and duration to inhibit CYP3A4 and Pgp.

Regarding `COc1cc2c(c(OC)c1O)-c1ccc(OC)c(=O)cc1[C@@H](NC(C)=O)CC2` [2-DMC, 2-O-demethylcolchicine], the metabolite plasma concentrations in data set [1] (after colchicine 0.6 mg single and multiple doses, LOQ 0.2 ng/mL) is under 0.2 ng/mL.

In the case of `COc1c(O)cc2c(c1OC)-c1ccc(OC)c(=O)cc1[C@@H](NC(C)=O)CC2` [3-DMC, 3-O-demethylcolchciine], the “detectable metabolite plasma concentration” value in data set [1] (after colchicine 0.6 mg single and multiple doses, 13 subjects) was “only one sample from 1 subject (of 13 subjects) had a detectable”. In addition, in the data set with CYP2C9/19, the “CYP2C9/19 protein levels (immunoblotting)” value is “decrease”.

In the case of `CC[C@H]1OC(=O)[C@H](C)[C@@H](O[C@H]2C[C@@](C)(OC)[C@@H](O)[C@H](C)O2)[C@H](C)[C@@H](O[C@@H]2O[C@H](C)C[C@H](N(C)C)[C@H]2O)[C@](C)(OC)C[C@@H](C)C(=O)[C@H](C)[C@@H](O)[C@]1(C)O` [Clarithromycin], the “oral dose excreted in feces” value in data set [2] (in vivo, po) is given as “About 40%”. Besides, the “dose excreted as unchanged drug in urine” value in data set [2] (oral 250 mg every 12 hours) was “Approximately 20%”; in data set [2] (oral 500 mg every 12 hours), about 30%. Besides, the absolute bioavailability result in data set [2] (oral administration) is “approximately 50%”. Moreover, in data set [2] (with food), the “increase of peak concentration by food” value is “about 24%”.

As usually defined, the Vd/F is the apparent distribution volume after extravascular dosing. As usually defined, the Cmax is the peak of the concentration-time curve. The half-life is how long it takes for the measured level to halve. A lower half-life goes with rapid decline. One may read the CL/F as the apparent clearance, not corrected for the fraction that reaches the circulation. Regarding `COc1cc2c(c(OC)c1OC)-c1ccc(OC)c(=O)cc1[C@@H](NC(C)=O)CC2` [Colchicine, (−)-N-[(7S,12aS)-1,2,3,10-tetramethoxy-9-oxo-5,6,7,9-tetrahydrobenzo[a]heptalen-7-yl]-acetamide], the “frequency of gout flares” value in data set [3] was “decreased the frequency of gout flares”. Further, in “clinical”, the AUC0-inf was 16 ng·h/mL, the AUC0-t came to 12 ng·h/mL and the Vd/F was found to be 432 L. Besides, the “attainment of steady state (trough plasma concentrations)” value in data set [1] (0.6 mg b.i.d., most subjects) is “by approximately the eighth day of dosing”. Also, the “plasma concentrations 24 hours post-dose” value in data set [1] (after a single 0.6 mg dose) is reported as “no longer quantifiable 24 hours post-dose in all but 1 subject; also recorded: not detectable by 24 hours post-dose”. In addition, the elimination half-life entry in data set [1] (calculated following a single oral dose, stated not an accurate estimate) was “approximately 5 hours”. The concentration at 25 day in data set [1] (human, in vivo, Day 25, read-out: mean Cmin concentration) worked out at 0.907 ng/mL. The concentration at 25 day in data set [1] (human, in vivo, po, mean, multiple (b.i.d.) oral doses 0.6 mg x 10 days, Day 25, healthy adults N=13, read-out: Cmin) was 0.907 ng/mL. The concentration at 25 day in data set [1] (human, in vivo, po, median, multiple (b.i.d.) oral doses 0.6 mg x 10 days, Day 25, healthy adults N=13, read-out: Cave) amounted to 1.19 ng/mL. Besides, the concentration at 25 day in data set [1] (human, in vivo, po, median, multiple (b.i.d.) oral doses 0.6 mg x 10 days, Day 25, healthy adults N=13, read-out: Cmin) came out at 0.903 ng/mL. Further, the Vd/F in data set [1] (human, in vivo, mean (% CV), 0.6-mg single dose, Day 1, N=13) worked out at 540 L. Besides, in data set [1] (setting [6]), the AUC0-τ is 29.05623 ng·h/mL, the Cave turned out to be 1210.68 pg/mL and the Kel was found to be 0.03 h⁻¹. In data set [1] (setting [7]), this compound gave an AUC0-inf of 12.2819 ng·h/mL, an AUC0-t of 10.50854 ng·h/mL, a Cmax of 2470.77 pg/mL and a Kel of 0.1829 h⁻¹. Also, in data set [1] (setting [8]), the AUC0-inf worked out at 54.11343 ng·h/mL, the AUC0-τ was 28.45215 ng·h/mL, the Kel was determined as 0.03 h⁻¹ and the T1/2 was determined as 26.51 h. Further, in data set [1] (setting [9]), the AUC0-t came out at 10.5609 ng·h/mL and the Kel was 0.1992 h⁻¹. Also, the “secondary colchicine peak in individual subject data” value in data set [1] (single dose or multiple dosing) is on record as “no subject experienced a secondary colchicine peak”. In data set [1] (steady state, Day 23 and Day 24), the “Cmin prior to morning dose higher than Cmin prior to evening dose” value is given as “approximately 12%”. The “CYP2C9/19 protein levels (immunoblotting)” value with CYP2C9/19 was “appeared to decrease”. The same compound displayed a half-life in data set [4] of 1600 to 1870 min. Also, under setting [10], the “decrease in apparent clearance (CL/F) of colchicine” value is given as 75% and the “increase in plasma elimination half-life (t1/2) of colchicine” value is on record as 233%. For the same compound, under setting [11], the “increase in mean colchicine AUC0-t” value was 250% and the “increase in mean colchicine Cmax” value is given as 167%. Under setting [12], the CL/F is 46.8 L/h, the maximum concentration (Cmax) turned out to be 3 ng/mL, the Ke is 0.132 h⁻¹ and the t1/2 is 9 h. Besides, the “FMF patients that do not show a beneficial response” value in data set [5] is reported as 5-10%.
